Assay results reported in PubChem BioAssay (NCI).
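In this assay, cells in 96-well plates receive the compound at five concentrations for 48 hours. Endpoints are linearly interpolated between the surrounding concentrations. The concentration for 50% growth inhibition is given as GI50. Definition used: TGI = concentration required for complete inhibition of growth.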

Tests used:
Assay in all cases: growth of human tumour cells (NCI), 48 h
OVCAR-5 ovarian = tested on: OVCAR-5 ovarian
NCI-H522 lung = tested on: NCI-H522 lung
U251 CNS = tested on: U251 CNS
SK-MEL-5 melanoma = tested on: SK-MEL-5 melanoma
CAKI-1 renal = tested on: CAKI-1 renal
UACC-257 melanoma = tested on: UACC-257 melanoma
EKVX NSCLC = tested on: EKVX NSCLC
ACHN renal = tested on: ACHN renal
T-47D breast = tested on: T-47D breast
HL-60(TB) leukemia = tested on: HL-60(TB) leukemia

SMILES | TGI (OVCAR-5 ovarian) [µM] | TGI (NCI-H522 lung) [µM] | TGI (U251 CNS) [µM] | TGI (SK-MEL-5 melanoma) [µM] | TGI (CAKI-1 renal) [µM] | TGI (UACC-257 melanoma) [µM] | TGI (EKVX NSCLC) [µM] | TGI (ACHN renal) [µM] | TGI (T-47D breast) [µM] | TGI (HL-60(TB) leukemia) [µM] | GI50 (T-47D breast) [µM] | GI50 (OVCAR-5 ovarian) [µM] | GI50 (NCI-H522 lung) [µM] | GI50 (U251 CNS) [µM] | GI50 (CAKI-1 renal) [µM] | GI50 (UACC-257 melanoma) [µM] | GI50 (EKVX NSCLC) [µM] | GI50 (ACHN renal) [µM]
COC(=O)C1=C(C(=O)OC)C2CCC1CC2=O (stereo not given) | > 100 | > 100 | > 100 | > 100 | > 100 | > 100 | > 100 | > 100 |  |  |  |  |  |  |  |  |  | 
O=C1CSC2(CC(/C=C/c3ccccc3[N+](=O)[O-])=NN2c2cccc(S(=O)(=O)O)c2)N1c1nc2ccccc2s1 (stereo not given) | 39.9 | 22.1 | 33.6 | > 75 | > 75 | > 75 | > 75 | 44.2 | 30.6 | 63.7 |  |  |  |  |  |  |  | 
c1ccc2c(CCNC3=NCCO3)cccc2c1 | > 10 | > 10 | > 10 | > 10 | > 10 |  | > 10 | > 10 | > 10 | > 10 |  |  |  |  |  |  |  | 
COc1ccc(OC)c2c1-c1nnnn1CCC2(C)C | > 100 | > 100 | > 100 |  |  | > 100 | > 100 | > 100 | > 100 | > 100 |  |  |  |  |  |  |  | 
C=CCOC1=C(OC(C)=O)C(C2COC(C)(C)O2)OC1=O (stereo not given) | 32.4 | 5.45 | 72.5 | 33.6 | 3.89 | 39.7 | 39.9 | 32.5 | 39.7 | 40.3 |  |  |  |  |  |  |  | 
Oc1ccccc1/C=N/N1C(=S)N(c2ccccc2)C(=Nc2ccccc2)C1=Nc1ccccc1 | > 52.4 | 12.6 | 14.2 | 40.9 | 29.6 | > 68 | 32.2 | 17.5 | 75.6 | > 86.1 |  |  |  |  |  |  |  | 
COc1ccc2oc(=O)c(-c3nc4ccccc4s3)cc2c1 | > 100 | > 100 | > 49.6 | > 100 | > 51.8 | > 100 | > 65 | 12.7 | > 100 | > 100 |  |  |  |  |  |  |  | 
CCN(CC)C(=O)N1CN(c2ccccc2)C2(CCN(CCCC3(c4ccc(F)cc4)OCCO3)CC2)C1=O |  | 30.2 | 30.2 | 26.4 | > 100 | 26.3 | 90.2 |  | > 100 | 27.9 |  |  |  |  |  |  |  | 
Cc1cn(C2CC(/[N+]([O-])=N\Nc3ccc([N+](=O)[O-])cc3)C(CO)O2)c(=O)[nH]c1=O (stereo not given) | > 100 | > 100 | > 100 |  | > 100 | > 100 | > 100 | > 100 |  | > 100 |  |  |  |  |  |  |  | 
N#C[C@H](c1nc2ccccc2[nH]1)c1nc2ccccc2nc1Cl | > 66.2 | 16.2 | 58.9 | 36 | 15.3 | > 62.5 | 30 | > 46 | 12.9 | 3.12 |  |  |  |  |  |  |  | 
CC(=O)Nc1ccc(C(=O)NN2C(=O)C(Cl)C2/C=C/c2ccccc2)cc1 (stereo not given) | > 100 | > 100 | > 100 | > 100 |  | > 100 |  | > 100 |  | > 100 |  |  |  |  |  |  |  | 
COc1ccc(/C=C2\NC(=S)N(CN3CCOCC3)C2=O)cc1 | > 100 |  | > 100 | > 100 |  | > 100 | > 100 | > 100 |  |  |  |  |  |  |  |  |  | 
ClC1(Cl)C2CCOC21n1cnc2ccccc21 (stereo not given) | > 100 | > 100 | > 100 | > 100 | > 100 |  | > 100 |  | > 100 | > 100 |  |  |  |  |  |  |  | 
CC(C)N=C(NC#N)NS(=O)(=O)c1cnccc1NC1CCCCCCC1 | > 100 | > 100 | > 100 | > 100 | > 100 | > 100 | > 100 | > 100 | > 100 |  |  |  |  |  |  |  |  | 
Nc1[nH]nc2c1Cc1c(n(Cc3ccc(Cl)cc3)c3ccccc13)C(=O)N2 | 27.3 |  |  | 17.6 | 23.5 | 46.4 | 59.2 |  | 28.9 | 10.2 |  |  |  |  |  |  |  | 
C[C@H](N)C(=O)Nc1ccc(-c2nc3ccccc3s2)cc1Cl | 14.9 | 46 | 29.1 | 29.9 | 23.2 | 34.4 | 26.7 | 29 |  |  |  |  |  |  |  |  |  | 
COC(=O)c1cc(OCc2cc(OCc3ccc(Br)cc3)cc(OCc3ccc(Br)cc3)c2)cc(OCc2cc(OCc3ccc(Br)cc3)cc(OCc3ccc(Br)cc3)c2)c1 | > 100 | > 100 | > 100 | > 100 | > 100 | > 100 | > 100 | > 100 | > 100 |  |  |  |  |  |  |  |  | 
O=C(O)c1cc2sc(C(=O)O)cc2s1 | > 100 | > 100 | > 100 | > 100 | > 100 | > 100 |  |  |  | > 100 |  |  |  |  |  |  |  | 
[B]C(=O)NC(CC(C)C)C(=O)NC1c2ccsc2C(=O)C1O (stereo not given) (tested in a mixture with another compound) | > 100 | > 100 | > 100 | > 100 |  | > 100 | > 100 | > 100 | > 100 | > 100 |  |  |  |  |  |  |  | 
CC(C)[Si](CC1=CCCCC12C(=O)N(COCC[Si](C)(C)C)c1ccccc12)(C(C)C)C(C)C (stereo not given) | 80.9 | > 100 | > 100 | > 100 | > 100 | > 100 | > 100 | > 100 | 96.9 |  |  |  |  |  |  |  |  | 
COc1ccc(-c2cc(-c3ccncc3)nc(N)c2-c2ccc(F)cc2)cc1 | > 100 | 27.1 | > 100 | > 100 | > 100 | > 100 | > 100 | 75.4 | > 100 |  |  |  |  |  |  |  |  | 
O=[N+]([O-])c1ccc(N/N=C\c2ccc(O)cc2O)nc1 | > 100 | > 100 | > 100 |  | 9.8 | > 100 | > 100 | 21.3 | > 100 |  | 4.04 | 5.68 | 10.8 | 2.08 | 1.68 | 3.37 | 3.49 | 0.599
